Measurements: patent US20240368557A1, “STEM CELL-DERIVED ALPHA CELLS AND METHODS OF GENERATING SAME” (President and Fellows of Harvard College, priority 2018, published 2024)

How the values were obtained:
Format in all cases: cell-based, human
SC-alpha cells = test: glucagon secretion of SC-alpha cells with glucagon secretion modulators
Description: To evaluate the ability of SC-alpha cells to respond to physiological conditions, we screened a number of glucagon secretion modulators and evaluated the effect on glucagon secretion. In the human islet, alpha cells secrete glucagon in response to low glucose conditions. […] Additionally, alpha cells respond to paracrine inhibitory signaling from delta cells through the hormone somatostatin resulting in suppressed glucagon secretion.
A number of pharmacological compounds have been developed to modulate glucagon secretion. We evaluated the effect of these compounds on SC-alpha cells to determine how well SC-alpha cells recapitulate the functional response of alpha cells (FIG. 4C).
Human islets or differentiated polyhormonal or SC-alpha cells were washed twice in low-glucose (2.8 mM) Krebs Ringer (KRB) buffer (128 mM NaCl, 5 mM KCl, 2.7 mM CaCl2, 1.2 mM MgSO4, 1 mM Na2HPO4, 1.2 mM KH2PO4, 5 mM NaHCO3, 10 mM HEPES, 0.1% BSA in milliQ). Cells were then loaded into 24 well transwell inserts and fasted in low glucose KRB for 1 hour at 37° C. Clusters were washed once in low glucose KRB and then incubated in low glucose KRB for 1 hour at 37° C. […] Cells were then dispersed and counted using a vicell automated cell counter. Collected supernatants were analyzed by ELISA for Insulin and/or glucagon and normalized to cell number.

[1] = system: HUES8-derived polyhormonal cells; test: small-molecule phenotypic screen on polyhormonal cells (high-content imaging of pro/insulin and pro/glucagon); conditions: 96 hours incubation, quintuplicate
Protocol: (§1) Toward this goal, we initiated a small-molecule phenotypic screen to identify compounds that either promote alpha cell identity or conversely reduce proinsulin expression in vitro. Briefly, HUES8 cells were differentiated using our polyhormonal optimized protocol. Cells were dispersed and arrayed into a 384-well plate and compounds were introduced. HUES8-derived polyhormonal cells were co-incubated with a compound library for 96 hours, after which the cells were fixed and stained for pro/glucagon and pro/insulin. High-content imaging was used to quantify the percentage of cells expressing each hormone individually and the percentage of polyhormonal cells as marked by the co-expression of both hormones (FIGS. 3A-3B). In total 43 compounds were evaluated in quintuplicate. […] To confirm that the effects of this compound were not unique to the assay format, PdbU was evaluated in the final stage of the directed differentiation protocol.
Polyhormonal cells were dispersed using TrypLE Express for 15 minutes and quenched using S3 media. The resulting single cell suspension was arrayed into a 384 well plate which had been coated with Matrigel with 50,000 cells in each well. Compounds were introduced each to 5 separate wells and incubated for 96 hours after which cells were fixed with 4% PFA and stained for pro/insulin and pro/glucagon as described above with the following modifications. Antibody incubations and washes were performed using a BioTek EL405 Plate washer and dispenser. Cells were imaged with the cellomics array scan high content imaging system. Nine fields of view were captured for each well and analyzed for cell number and fluorescent content. The percentage of cells expressing pro/insulin and pro/glucagon was calculated for each well.

polyhormonal cells = test: PKC activator treatment in final stage (stage 6) of directed differentiation, flow cytometry
Protocol: as §1
To test the specificity of PKC activation on the results shown above, we compiled a small library of known PKC activators and evaluated their ability to similarly decrease insulin expression in polyhormonal cells. […] To that end, we treated polyhormonal cells for 28 days with either vehicle or each PKC activator and assessed the percentage of monohormonal expressing alpha cells at the end of the 28-day treatment. […]

[2] = system: HUES8 cells differentiated to SC-beta cells; test: PdbU treatment of stage 6 SC-beta cell differentiation, flow cytometry
Description: FIG. 7 provides flow cytometry of HUES8 cells differentiated to SC-beta cells and treated with PdbU for 14 days during stage 6.
Differentiation of hPSCs to beta cells results in a side population of polyhormonal cells. To this end we evaluated the effect of PKC activation on the differentiation of SC-beta cells. […] However, when treated with PdbU, the polyhormonal side population in the differentiation was reduced, and the percentage of monohormonal alpha cells was increased.
Cells were collected for flow cytometry analysis at various time points throughout the differentiation process. Cells were dispersed with TrypLE Express at 37° C. for 15 minutes after which trypsin was quenched with serum containing media (S1, S2, or S3). Cells were fixed in 4% PFA for 20 minutes and subsequently stored in PBS at 4° C. until staining. Staining was performed by first permeabilizing the cells in block solution (PBS+0.1% Triton X-100+5% donkey serum) for 40 minutes. Cells were then incubated with primary antibodies in block solution for 1 hour at RT, washed twice with PBST and incubated with secondary antibody in block solution for 1 hour at RT. Cells were then washed in three times and resuspended in PBST at a concentration of 1×10^6 cells/ml. Stained cells were analyzed using the Accuri C6 or Attune flow cytometers. Antibody concentrations used were as follows. Pro/insulin was assessed using an antibody that recognizes the c-peptide epitope from the Iowa Hybridoma Bank and used at a concentration of 1:300. Pro/glucagon was assessed using an antibody that recognizes the GLP-2 (Santa Cruz) or glucagon (Manufacturer) epitopes and used at a concentration of 1:300. Secondary antibodies used were a donkey-anti-goat-Alexaflour 488 (1:500) and a donkey-anti-rat-Alexaflour 647 (1:500).

[3] = stage 6 SC-beta cells treated with PdbU

Row | Compound | glucagon secretion from SC-alpha cells (SC-alpha cells) | percentage of cells expressing pro/glucagon [1] | percentage of polyhormonal cells (cells expressing both pro/insulin and pro/glucagon) [1] | percentage of pro/insulin expressing cells [1] | population of polyhormonal cells induced to reduce insulin expression (polyhormonal cells; 28 day treatment, stage 6, vs. 23±3% (comparison)) | percentage of monohormonal SC-alpha cells after withdrawal of PdbU (polyhormonal cells; cultured in the absence of PdbU for 7 days) | percentage of Nkx6.1/C-peptide co-positive cells (number of beta cells) ([2]; PdbU for 14 days during stage 6) | percentage of monohormonal alpha cells in the SC-beta differentiation [2, 3] | polyhormonal side population in the SC-beta differentiation [2, 3]
1 | COc1ccccc1OCC(O)CN1CCN(CC(=O)Nc2c(C)cccc2C)CC1 (stereo not drawn) [ranolazine] | increase glucagon secretion | – | – | – | – | – | – | – | –
2 | CCCC(=O)O[C@@H]1[C@@H](C)[C@@]2(O)[C@@H](C=C(CO)C[C@]3(O)C(=O)C(C)=C[C@@H]23)[C@@H]2C(C)(C)[C@]12OC(=O)CCC [PdbU] | – | increase | significantly reduced | significantly decrease | 46±4% | did not significantly reduce | did not have a significant effect | increased | reduced
